We go through six molecules from patent US9644083B2, “Cellulose acylate film, polarizing plate protective film, polarizing plate and liquid crystal display using the same” (FUJIFILM Corporation, priority 2014, dated 2017).

Molecules are shown by their SMILES.

One data set is described as follows: acid dissociation constant pKa by alkali titration method. In kind it is physicochemical. To be noted: 25° C., mixed solvent tetrahydrofuran 60 ml/water 40 ml. The procedure:
The cellulose acylate film of the present invention contains at least two chelating agents. One of the two chelating agents is a chelating agent having a […] pKa and, in the present invention, such is a chelating agent (chelating agent A) having at least one functional group whose acid dissociation constant pKa measured at 25° C. in a mixed solvent having a mixing ratio of tetrahydrofuran 60 ml/water 40 ml is 6 or less.
The acid dissociation constant pKa can be measured in accordance with an alkali titration method described in Experimental Chemistry Course, 2nd Ed., pp. 215-217, published by MARUZEN PUBLISHING CO., LTD.
At least one residual chelating agent of the at least two chelating agents which the cellulose acylate film of the present invention contains, is a chelating agent B having at least one functional group of a conjugate acid, whose pKa measured at 25° C. in a mixed solvent having a mixing ratio of tetrahydrofuran 60 ml/water 40 ml, is 7 or more.
As to `O=P(O)(O)CN(CCN(CP(=O)(O)O)CP(=O)(O)O)CP(=O)(O)O` [PH-540, Ethylenediamine N,N,N′,N′-tetrakis(methylenephosphonic acid)], the “Chelating agent A pKa of acidic group” value is given as “Less than 3”. On the same count and under the same terms, under `CCCCCCCCCCCCCCCC(=O)OC[C@H](O)[C@H]1OC(=O)C(O)=C1O` [L-ascorbic acid palmitic acid ester] stands 6.0.

Take `O=C(O)CN(CCN(CC(=O)O)CC(=O)O)CCN(CC(=O)O)CC(=O)O` [diethylenetriaminepentaacetic acid]: the “Chelating agent A pKa of acidic group” value is 3.6.

Still in this data set, the particulars now being: pKa of conjugate acid; 25° C., mixed solvent tetrahydrofuran 60 ml/water 40 ml; read-out: Chelating agent B pKa of basic group.
On to `CC(O)CN(CCN(CC(C)O)CC(C)O)CCN(CC(C)O)CC(C)O` (stereo not drawn) [N,N,N′,N″,N″-pentakis(2-hydroxypropyl)diethylenetriamine], for which the pKa (commonly the negative logarithm of the acid dissociation constant) is 8.4. Take `ONc1nc(NC2CCCCC2)nc(NC2CCCCC2)n1` [Chelating agent D]: the pKa was 14. With `NCCNCCNCCN` [triethylenetetramine], the pKa came out at 8.9.
